Assay results reported in patent US6689808B2, “Substituted phthalides, a process for their preparations and pharmaceutical compositions containing them” (Les Laboratoires Servier, priority 2000, dated 2004).

| Compound | melting point [°C] |
| --- | --- |
| CCCCCCCCC1OC(=O)c2cc(N)ccc21 (stereo not drawn) [Example 6, 6-Amino-3-octyl-phthalide] | 124 to 125 |
| CCCCCCC1OC(=O)c2cc(NC(C)=O)ccc21 (stereo not drawn) [Example 8, 6-Acetamido-3-hexyl-phthalide] | 135 to 137 |
| CCCCCCCCC1OC(=O)c2cc(NC(C)=O)ccc21 (stereo not drawn) [Example 9, 6-Acetamido-3-octyl-phthalide] | 133 to 134 |
| CCCCC1OC(=O)c2cc(NC(N)=S)ccc21 (stereo not drawn) [Example 21, 3-Butyl-6-thioureido-phthalide] | 183 to 185 |
| CCC1(CC)OC(=O)c2cc([N+](=O)[O-])ccc21 [Example 24, 3,3-Diethyl-6-nitro-phthalide] | 98.5 to 100 |
| CCC1(CC)OC(=O)c2cc(N)ccc21 [Example 25, 6-Amino-3,3-diethyl-phthalide] | 153 to 154 |
